The values that follow come from publication PMC11198849, “Expression and purification of human neutrophil proteinase 3 from insect cells and characterization of ligand binding” (PLOS ONE, 2024).

In assay [1] the target is T1, rPR3 (Homo sapiens, UniProt P24158).
T1 construct: TEV cleavage site (C); 6x His-tag (C); made in house; host or cells: Spodoptera frugiperda Sf9 (baculovirus), secreted
T1 sequence (P24158 28-248 limits assumed): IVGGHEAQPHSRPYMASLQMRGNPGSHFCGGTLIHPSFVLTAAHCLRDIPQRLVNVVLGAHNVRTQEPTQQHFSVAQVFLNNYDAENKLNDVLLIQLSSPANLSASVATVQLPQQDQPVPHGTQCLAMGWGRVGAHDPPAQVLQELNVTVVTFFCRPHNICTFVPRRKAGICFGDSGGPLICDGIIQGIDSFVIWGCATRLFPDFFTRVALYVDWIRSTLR
As to the kind of experiment: SPR binding assay on biotinylated rPR3. The note with it: for SPR binding behaviour towards rPR3 (in words): sensorgrams Fig 5.

For the next assay, the target named is T2, hPR3 (Homo sapiens, UniProt P24158).
T2 construct: Enzymes purified from human neutrophiles (hPR3 and hNE); purchased Athens Research and Technology; host or cells: human neutrophils
T2 sequence (P24158 28-248 limits assumed): T1 sequence (P24158 28-248 limits assumed)
As to the kind of experiment: Fluorescence-based enzymatic activity assay with hPR3 (FRET peptide Abz-VADnVADYQ-EDDnp). The assay is classed as biochemical.

In assay [2] the target is T1, rPR3. As to the kind of experiment: Fluorescence-based enzymatic activity assay with rPR3 (FRET peptide Abz-VADnVADYQ-EDDnp). It is filed as biochemical.
Experimental: (§1) The reaction was started by adding the FRET peptide (Abz-VADnVADYQ-EDDnp) at a final concentration of 5 μM. The fluorescent signal (excitation filter 320, emission filter 420) was read every 30 s for 30 min at 30°C with a fluorescent plate reader (Tecan Spark) and the enzymatic activity was measured from the initial linear portion of the slope (fluorescent signal/min) of the time-course curve of reaction progress.
(§2) Data were fitted using nonlinear regression analysis (GraphPad Prism v.9) to determine the IC50 values.
A further assay relates to PR3. The following applies: cited from earlier work.
The next assay concerns the target T3, hNE (Homo sapiens, UniProt P08246).
T3 construct: Enzymes purified from human neutrophiles (hPR3 and hNE); purchased Athens Research and Technology; host or cells: human neutrophils
T3 sequence (P08246 30-247 limits assumed): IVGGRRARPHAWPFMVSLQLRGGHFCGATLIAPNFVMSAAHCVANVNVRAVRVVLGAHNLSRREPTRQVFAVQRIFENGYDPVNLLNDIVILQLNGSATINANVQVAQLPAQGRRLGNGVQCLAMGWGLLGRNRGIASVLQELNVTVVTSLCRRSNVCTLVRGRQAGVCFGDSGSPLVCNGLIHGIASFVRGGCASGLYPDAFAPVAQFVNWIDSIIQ
As to the kind of experiment: Fluorescence-based enzymatic activity assay with hNE (MeOSuc-AAPV-AMC substrate). The assay is classed as biochemical. The following applies: for %Relative activity of enzyme: hNE, Rep1-Rep3.

In assay [3] the target is α1-antitrypsin (Homo sapiens) (UniProt P01009). The note with it: cited from earlier work.
Setting [4] is: IC50 replicates Rep1-Rep3, read-out: hPR3 IC50.
[5] abbreviates: mean ± SD (n = 3), read-out: IC50 hPR3.
The mark [6] stands for this setting: IC50 replicates Rep1-Rep3, read-out: rPR3 IC50.
Setting [7] is: mean ± SD (n = 3), read-out: IC50 rPR3.
Setting [8] is: affinity data, single replicates Rep1-Rep3, read-out: Steady state KD.
Where [9] appears, read: steady state, average and SD of triplicates, read-out: Steady state KD.

Several values for one entry are separate records, joined by “and”; a condition that tells them apart may be missing. Equal values may be shown once. Read-outs that look alike come from different tables or passages of the source.

Chain of α1-antitrypsin (Homo sapiens) (P01009 25-418): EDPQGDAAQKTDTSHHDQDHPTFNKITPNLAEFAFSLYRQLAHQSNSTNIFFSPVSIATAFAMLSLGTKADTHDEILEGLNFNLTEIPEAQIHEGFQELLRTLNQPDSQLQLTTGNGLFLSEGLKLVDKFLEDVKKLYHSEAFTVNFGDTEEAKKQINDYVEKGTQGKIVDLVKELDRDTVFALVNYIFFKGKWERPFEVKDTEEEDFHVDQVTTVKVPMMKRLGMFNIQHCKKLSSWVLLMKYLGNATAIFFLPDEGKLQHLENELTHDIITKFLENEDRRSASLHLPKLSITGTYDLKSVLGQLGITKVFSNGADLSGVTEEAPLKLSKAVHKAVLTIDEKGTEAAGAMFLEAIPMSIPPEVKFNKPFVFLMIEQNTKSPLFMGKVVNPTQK
Experimental for hNE: The reaction was started by adding the fluorogenic substrate (MeOSuc-AAPV-AMC) at a final concentration of 5 μM. The fluorescent signal (excitation filter 360, emission filter 460) was read as described above for PR3.
as §2
Experimental for hPR3: as §1, §2

As for `CC(C)(C)C(=O)Oc1ccc(S(=O)(=O)Nc2ccccc2C(=O)NCC(=O)O)cc1` [Sivelestat], the “SPR binding behaviour towards rPR3 (in words)” value on rPR3 [1] was “hardly dissociated”. Besides, the IC50 (as a rule, the midpoint of a concentration-inhibition curve) is 33.6 nM and 34.1 nM and 30.4 nM on hPR3 (setting [4]); 33 ± 2 nM at hPR3 (setting [5]); 35.8 nM and 29.5 nM and 30.1 nM at rPR3 [2] (setting [6]); 32 ± 4 nM on rPR3 [2] (setting [7]).

Regarding “α1-antitrypsin: endogenous serine protease inhibitor, also denoted SERPIN; purchased from Sigma-Aldrich”, the “SPR binding behaviour towards rPR3 (in words)” value with rPR3 [1] is reported as “hardly dissociated”. The “first-order rate constant k2 (EI* to irreversible EI)” value with PR3 is 0.04 s⁻¹. Besides, the IC50 with hPR3 (IC50 replicates Rep1-Rep3, listed as a1-antitrypsin, read-out: hPR3 IC50) was 15.8 nM and 15.5 nM and 14.6 nM; with hPR3 (setting [5]) it was 15 ± 1 nM; with rPR3 [2] (IC50 replicates Rep1-Rep3, listed as a1-antitrypsin, read-out: rPR3 IC50) it was 15.3 nM and 14.7 nM and 13.5 nM; with rPR3 [2] (setting [7]), 14 ± 1 nM.

Take `Cc1c(-c2ccnn2C)cc(C(=O)NCc2ccc(S(C)(=O)=O)cn2)c(=O)n1-c1cccc(C(F)(F)F)c1` [Alvelestat]: the Kd (commonly a measure of binding affinity in units of concentration) was 1.95e-05 M and 1.26e-05 M and 8.36e-06 M on rPR3 [1] (setting [8]); 1.35e-05 ± 5.6e-06 M on rPR3 [1] (setting [9]). In addition, the “SPR binding behaviour towards rPR3 (in words)” value on rPR3 [1] was “weak rPR3 binder with fast association and dissociation rates”. Moreover, at hNE (IC50 replicates Rep1-Rep3), the IC50 was 10.7 nM and 12.1 nM and 11.6 nM. The “%Relative activity of enzyme” value at hNE (inhibitor 1.95 nM) is 78.8834% and 84.934% and 85.1448%; at hNE (inhibitor 3.9 nM), 78.3028% and 76.8727%; at hNE (inhibitor 7.8 nM), 61.4733% and 58.7939% and 60.1294%; on hNE (inhibitor 15.6 nM), 40.7947% and 40.9606% and 39.7611%; at hNE (inhibitor 31.25 nM) it was 27.1224% and 29.7155% and 27.7611%; at hNE (inhibitor 62.5 nM) it was 15.0503% and 20.2323% and 16.5108%. The “%Relative activity of enzyme” value at hNE (inhibitor 125 nM) is 9.7027% and 8.522% and 9.4691%.

On to Proteinase 3 (from UniProt P24158), for which the Ki (in general, the dissociation constant of the complex between target and ligand, obtained from inhibition or displacement) in assay [3] is 38 nM.

In the case of `CC1=C(C#N)[C@@H](c2ccc(C#N)cc2S(C)(=O)=O)N(C)C(=O)N1c1cccc(C(F)(F)F)c1` [BAY-85-8501], the Kd at rPR3 [1] (1:1 binding kinetic model, average and SD of triplicates, read-out: KD) is 1.4e-08 M; on rPR3 [1] (affinity data, average of Rep1-Rep3, read-out: Steady state KD (M), Average), 2.87e-08 M; at rPR3 [1] (setting [8]) it was 2.6e-08 M and 4.4e-08 M and 1.6e-08 M; at rPR3 [1] (average of Rep1-Rep3, read-out: KD (M), kinetics 1:1, Average) it was 1.37e-08 M; at rPR3 [1] (single replicates Rep1-Rep3, read-out: KD (M), kinetics 1:1) it was 1.37e-08 M and 1.09e-08 M and 1.66e-08 M; at rPR3 [1] (setting [9]), 3e-08 ± 1e-08 M. Besides, the IC50 is 24.3 nM and 24.7 nM and 31.5 nM on hPR3 (setting [4]); 27 ± 4 nM on hPR3 (setting [5]); 67.7 nM and 55 nM and 53.6 nM on rPR3 [2] (setting [6]); 59 ± 8 nM at rPR3 [2] (setting [7]). Also, the Ki on rPR3 [2] (Cheng-Prusoff equation, literature Km 27.4 μM, read-out: Ki derived from the IC50 value) came to 50 nM.
